This note sets out measurements from patent US8445676B2, “Pyrrolotriazine kinase inhibitors” (Bristol-Myers Squibb Company, priority 2008, dated 2013).

Test [1] addresses T1, JAK3 (Homo sapiens, UniProt P52333).
T1 sequence (P52333 1-1124): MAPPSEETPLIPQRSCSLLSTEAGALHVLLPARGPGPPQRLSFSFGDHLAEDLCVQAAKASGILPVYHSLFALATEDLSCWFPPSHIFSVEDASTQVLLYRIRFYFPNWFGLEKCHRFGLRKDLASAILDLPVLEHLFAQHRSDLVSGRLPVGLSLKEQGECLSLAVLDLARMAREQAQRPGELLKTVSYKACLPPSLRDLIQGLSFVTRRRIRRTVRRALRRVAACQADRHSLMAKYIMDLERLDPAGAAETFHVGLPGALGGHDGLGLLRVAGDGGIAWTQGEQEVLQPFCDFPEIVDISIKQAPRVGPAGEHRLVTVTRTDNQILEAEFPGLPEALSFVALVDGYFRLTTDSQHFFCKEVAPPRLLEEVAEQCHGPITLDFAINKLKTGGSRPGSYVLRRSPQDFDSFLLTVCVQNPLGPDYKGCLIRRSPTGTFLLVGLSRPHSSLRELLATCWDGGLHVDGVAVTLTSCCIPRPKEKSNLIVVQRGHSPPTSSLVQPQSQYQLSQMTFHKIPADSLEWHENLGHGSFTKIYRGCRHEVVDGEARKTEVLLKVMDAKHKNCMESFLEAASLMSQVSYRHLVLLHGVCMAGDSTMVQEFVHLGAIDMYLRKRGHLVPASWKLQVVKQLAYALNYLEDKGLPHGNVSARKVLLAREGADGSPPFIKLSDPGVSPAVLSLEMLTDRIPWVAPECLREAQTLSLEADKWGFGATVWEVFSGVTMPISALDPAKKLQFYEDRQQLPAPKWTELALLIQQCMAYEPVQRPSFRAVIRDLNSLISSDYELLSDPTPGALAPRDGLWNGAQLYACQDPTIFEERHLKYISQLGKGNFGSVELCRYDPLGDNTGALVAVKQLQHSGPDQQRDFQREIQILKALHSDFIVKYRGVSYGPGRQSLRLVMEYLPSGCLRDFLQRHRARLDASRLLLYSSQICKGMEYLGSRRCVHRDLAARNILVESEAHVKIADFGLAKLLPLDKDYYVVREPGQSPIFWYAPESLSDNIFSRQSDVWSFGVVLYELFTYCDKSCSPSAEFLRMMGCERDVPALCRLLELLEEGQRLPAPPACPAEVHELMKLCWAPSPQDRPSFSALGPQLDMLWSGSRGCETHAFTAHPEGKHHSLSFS
Description: JAK3 Tyrosine Kinase Assay. The format is biochemical. To be noted: ATP 8 μM; JAK3 2.5 nM; 60 min room temperature. The procedure: JAK3 Tyrosine Kinase Assay
The assays were performed in V-bottom 384-well plates. […] The reaction was initiated by the combination of JAK3 with substrates and test compounds. The reaction was incubated at room temperature for 60 min. and terminated by adding 45 μl of 35 mM EDTA to each sample. The reaction mixture was analyzed on the Caliper LabChip 3000 by electrophoretic separation of the fluorescent substrate and phosphorylated product. […] The final concentration of reagents in the assays is ATP, 8 μM; JAK3 fluorescent peptide, 1.5 μM; JAK3, 2.5 nM; and DMSO, 1.6%. […] Compounds were dissolved at 10 mM in dimethylsulfoxide (DMSO) and evaluated at eleven concentrations, each in duplicate. IC50 values were derived by non-linear regression analysis.

Test [2] has as its target JAK2 (Homo sapiens, UniProt O60674). Description: JAK2 Tyrosine Kinase Assay. In kind it is biochemical. To be noted: ATP 30 μM; JAK2 1 nM; 60 min room temperature; read-out: Jak2(IC50). In short, it runs like this:
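Reaction of JAK2 with fluorescent substrate run 60 min at room temperature and stopped with EDTA. Substrate and phosphorylated product separated electrophoretically on a Caliper LabChip. Compounds tested at eleven concentrations in duplicate, with IC50 from non-linear regression.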

Chain of JAK2 (O60674 whole entry): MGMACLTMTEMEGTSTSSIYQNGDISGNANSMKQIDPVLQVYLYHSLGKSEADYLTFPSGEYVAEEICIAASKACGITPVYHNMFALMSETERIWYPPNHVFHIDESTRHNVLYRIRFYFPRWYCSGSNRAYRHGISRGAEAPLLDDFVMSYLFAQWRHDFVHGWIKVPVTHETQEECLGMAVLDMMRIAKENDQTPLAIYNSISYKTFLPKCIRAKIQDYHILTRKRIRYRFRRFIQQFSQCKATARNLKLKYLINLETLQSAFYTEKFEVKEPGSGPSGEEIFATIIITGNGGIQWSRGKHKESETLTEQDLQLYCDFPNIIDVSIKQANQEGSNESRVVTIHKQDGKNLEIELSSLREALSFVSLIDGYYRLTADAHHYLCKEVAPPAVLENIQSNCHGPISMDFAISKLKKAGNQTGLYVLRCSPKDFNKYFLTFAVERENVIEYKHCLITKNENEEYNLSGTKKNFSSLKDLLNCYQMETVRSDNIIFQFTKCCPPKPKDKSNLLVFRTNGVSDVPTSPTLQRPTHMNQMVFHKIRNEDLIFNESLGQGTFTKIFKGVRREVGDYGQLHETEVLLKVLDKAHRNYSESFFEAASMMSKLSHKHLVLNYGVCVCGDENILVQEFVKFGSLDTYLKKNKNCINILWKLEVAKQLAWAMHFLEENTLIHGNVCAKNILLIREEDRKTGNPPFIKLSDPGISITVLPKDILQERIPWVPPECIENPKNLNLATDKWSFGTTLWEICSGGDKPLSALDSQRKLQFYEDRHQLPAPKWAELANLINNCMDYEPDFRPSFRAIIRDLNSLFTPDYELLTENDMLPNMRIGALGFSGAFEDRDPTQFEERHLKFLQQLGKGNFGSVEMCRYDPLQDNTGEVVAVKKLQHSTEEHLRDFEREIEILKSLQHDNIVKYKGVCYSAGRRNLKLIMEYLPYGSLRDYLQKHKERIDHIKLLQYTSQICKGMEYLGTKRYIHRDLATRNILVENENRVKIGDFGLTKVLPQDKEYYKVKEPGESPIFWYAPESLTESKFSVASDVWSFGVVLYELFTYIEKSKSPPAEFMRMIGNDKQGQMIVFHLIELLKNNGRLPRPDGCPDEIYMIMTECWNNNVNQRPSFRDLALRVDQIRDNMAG

Take `Cc1cc(Nc2nc(N3CCN(C(=O)C(C)(C)c4ccccc4)CC3)nn3cccc23)n[nH]1` [Example 7, 2-(4-(2-methyl-2-phenylpropanoyl)-1-piperazinyl)-N-(5-methyl-1H-pyrazol-3-yl)pyrrolo[2,1-f] [1,2,4]triazin-4-amine]: the IC50 in test [1] stood at 2060 nM; in test [2] it was 320 nM. For `Cc1cc(Nc2nc(N3CCN(C(=O)Cc4ccccc4C(F)(F)F)CC3)nn3cccc23)n[nH]1` [Example 10, N-(5-methyl-1H-pyrazol-3-yl)-2-(4-((2-(trifluoromethyl)phenyl)acetyl)-1-piperazinyl)pyrrolo[2,1-f][1,2,4]triazin-4-amine], in that order: 9.84 nM and 0.604 nM.

As to `Cc1cc(Nc2nc(N3CCN(C(=O)c4c(F)cccc4F)CC3)nn3cccc23)n[nH]1` [Example 20, 2-(4-(2,6-difluorobenzoyl)-1-piperazinyl)-N-(5-methyl-1H-pyrazol-3-yl)pyrrolo[2,1-f] [1,2,4]triazin-4-amine], the IC50 amounted to 50 nM in test [1] and 8.14 nM in test [2]. The corresponding values for `Cc1cc(Nc2nc(N3CCN(C(=O)c4ccc(F)cc4)CC3)nn3cccc23)n[nH]1` [Example 24, 2-(4-(4-fluorobenzoyl)-1-piperazinyl)-N-(5-methyl-1H-pyrazol-3-yl)pyrrolo[2,1-f][1,2,4]triazin-4-amine] are 5.98 nM and 1.14 nM. For `Cc1cnc(C(=O)N2CCN(c3nc(Nc4cc(C)[nH]n4)c4cccn4n3)CC2)cn1` [Example 32, 2-(4-((5-methyl-2-pyrazinyl)carbonyl)-1-piperazinyl)-N-(5-methyl-1H-pyrazol-3-yl)pyrrolo[2,1-f] [1,2,4]triazin-4-amine], in that order: 120 nM and 7.16 nM. The corresponding values for `Cc1cc(Nc2nc(N3CCN(C(=O)Cc4ccc(F)cc4F)CC3)nn3cccc23)n[nH]1` [Example 37, 2-(4-((2,4-difluorophenyl)acetyl)-1-piperazinyl)-N-(5-methyl-1H-pyrazol-3-yl)pyrrolo[2,1-f][1,2,4]triazin-4-amine] are 160 nM and 7.73 nM.

In the case of `Cc1cc(Nc2nc(N3CCN(C(=O)Cc4c(Cl)cccc4Cl)CC3)nn3cccc23)n[nH]1` [Example 38, 2-(4-((2,6-dichlorophenyl)acetyl)-1-piperazinyl)-N-(5-methyl-1H-pyrazol-3-yl)pyrrolo[2,1-f][1,2,4]triazin-4-amine], the IC50 in test [1] turned out to be 30 nM; in test [2], 1.12 nM. For the molecule `Cc1cc(Nc2nc(N3CCN(C(=O)Cc4ccc(C(F)(F)F)cc4)CC3)nn3cccc23)n[nH]1` [Example 43, N-(5-methyl-1H-pyrazol-3-yl)-2-(4-((4-(trifluoromethyl)phenyl)acetyl)-1-piperazinyl)pyrrolo[2,1-f][1,2,4]triazin-4-amine], the IC50 in test [1] came to 50000 nM; in test [2], 2660 nM. The corresponding values for `COc1ccc(CC(=O)N2CCN(c3nc(Nc4cc(C)[nH]n4)c4cccn4n3)CC2)cc1` [Example 45, 2-(4-((4-methoxyphenyl)acetyl)-1-piperazinyl)-N-(5-methyl-1H-pyrazol-3-yl)pyrrolo[2,1-f][1,2,4]triazin-4-amine] are 10 nM and 0.891 nM.

With `Cc1cc(Nc2nc(N3CCN(C(=O)Cc4cccc(C(F)(F)F)c4)CC3)nn3cccc23)n[nH]1` [Example 48, N-(5-methyl-1H-pyrazol-3-yl)-2-(4-((3-(trifluoromethyl)phenyl)acetyl)-1-piperazinyl)pyrrolo[2,1-f][1,2,4]triazin-4-amine], the IC50 in test [1] was 20 nM; in test [2], 0.903 nM. As to `COc1cccc(CC(=O)N2CCN(c3nc(Nc4cc(C)[nH]n4)c4cccn4n3)CC2)c1` [Example 49, 2-(4-((3-methoxyphenyl)acetyl)-1-piperazinyl)-N-(5-methyl-1H-pyrazol-3-yl)pyrrolo[2,1-f][1,2,4]triazin-4-amine], the half-maximal inhibitory concentration (IC50) in test [1] turned out to be 170 nM; in test [2] it was 7.9 nM. The corresponding values for `Cc1cc(Nc2nc(N3CCN(C(=O)c4cccc(C#N)c4)CC3)nn3cccc23)n[nH]1` [Example 66, 3-((4-(4-((5-methyl-1H-pyrazol-3-yl)amino)pyrrolo[2,1-f][1,2,4]triazin-2-yl)-1-piperazinyl)carbonyl)benzonitrile] are 10 nM and 0.898 nM.

With `CO[C@H](C(=O)N1CCN(c2nc(Nc3cc(C)[nH]n3)c3cccn3n2)CC1)c1ccccc1` [Example 90, 2-(4-((2S)-2-methoxy-2-phenylacetyl)-1-piperazinyl)-N-(5-methyl-1H-pyrazol-3-yl)pyrrolo[2,1-f] [1,2,4]triazin-4-amine], the half-maximal inhibitory concentration (IC50) in test [1] came out at 70 nM; in test [2], 8.15 nM. The corresponding values for `Cc1cc(Nc2nc(N3CCN(C(=O)Cc4ccc(OC(F)(F)F)cc4)CC3)nn3cccc23)n[nH]1` [Example 91, N-(5-methyl-1H-pyrazol-3-yl)-2-(4-((4-(trifluoromethoxy)phenyl)acetyl)-1-piperazinyl)pyrrolo[2,1-f][1,2,4]triazin-4-amine] are 20 nM and 0.697 nM. The corresponding values for `Cc1cc(Nc2nc(N3CCN(C(=O)c4ncccn4)CC3)nn3cccc23)n[nH]1` [Example 95, N-(5-methyl-1H-pyrazol-3-yl)-2-(4-(2-pyrimidinylcarbonyl)-1-piperazinyl)pyrrolo[2,1-f] [1,2,4]triazin-4-amine] are 90 nM and 6.65 nM.

Regarding `Cc1cc(Nc2nc(N3CCN(C(=O)c4ccns4)CC3)nn3cccc23)n[nH]1` [Example 106, 2-(4-(5-isothiazolylcarbonyl)-1-piperazinyl)-N-(5-methyl-1H-pyrazol-3-yl)pyrrolo[2,1-f] [1,2,4]triazin-4-amine], the IC50 in test [1] is 40 nM; in test [2] it was 7.14 nM. Take `CO[C@@H](C(=O)N1CCN(c2nc(Nc3cc(C)[nH]n3)c3cccn3n2)CC1)c1ccccc1` [Example 110, 2-(4-((2R)-2-methoxy-2-phenylacetyl)-1-piperazinyl)-N-(5-methyl-1H-pyrazol-3-yl)pyrrolo[2,1-f][1,2,4]triazin-4-amine]: the IC50 in test [1] worked out at 20 nM; in test [2], 1 nM.

Turning to `Cc1cc(Nc2nc(N3CCN(C(=O)C4(c5ccc(F)cc5)CCCCC4)CC3)nn3cccc23)n[nH]1` [Example 126, 2-(4-((1-(4-fluorophenyl)cyclohexyl)carbonyl)-1-piperazinyl)-N-(5-methyl-1H-pyrazol-3-yl)pyrrolo[2,1-f] [1,2,4]triazin-4-amine], the IC50 was 1410 nM in test [1] and 150 nM in test [2]. The corresponding values for `Cc1cc(Nc2nc(N3CCN(C(=O)[C@@H](NC(=O)OC(C)(C)C)c4ccc(F)cc4)CC3)nn3cccc23)n[nH]1` [Example 132, tert-butyl((1S)-1-(4-fluorophenyl)-2-(4-(4-((5-methyl-1H-pyrazol-3-yl)amino)pyrrolo[2,1-f][1,2,4]triazin-2-yl)-1-piperazinyl)-2-oxoethyl)carbamate] are 30 nM and 0.971 nM.

`Cc1cc(Nc2nc(N3CCN(C(=O)Cc4ccc(C(F)(F)F)cc4C(F)(F)F)CC3)nn3cccc23)n[nH]1` [Example 134, 2-(4-((2,4-bis(trifluoromethyl)phenyl)acetyl)-1-piperazinyl)-N-(5-methyl-1H-pyrazol-3-yl)pyrrolo[2,1-f] [1,2,4]triazin-4-amine]: the IC50 in test [1] stood at 8.41 nM; in test [2], 0.887 nM. Consider `COc1cc(F)c(CC(=O)N2CCN(c3nc(Nc4cc(C)[nH]n4)c4cccn4n3)CC2)c(F)c1` [Example 139, 2-(4-((2,6-difluoro-4-methoxyphenyl)acetyl)-1-piperazinyl)-N-(5-methyl-1H-pyrazol-3-yl)pyrrolo[2,1-f][1,2,4]triazin-4-amine], for which the IC50 in test [1] is 70 nM.

As a reminder, the IC50 is the point on the concentration scale where inhibition reaches its midpoint.
